Structures are written as SMILES. Where two headings read alike, the source gives them in different places.

One test concerns A2780 cells. The experiment in a line: In-vitro cell proliferation assay (SRB), A2780 cells. Format: cell-based. Particulars: Homo sapiens, A2780, 72 h, A2780 cells, 72 hours, read-out: A2780 IC50. The method in brief:
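Cells were plated overnight at 37° C., 5% CO2, then exposed to serially diluted compounds (0.1% DMSO final) for 72 hours. Viable cells were measured by sulforhodamine B staining after TCA fixation, read at 570 nm; media-only background was subtracted before % inhibition was calculated.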

Another test deals with T1, NAMPT (Homo sapiens, UniProt P43490).
T1 construct: His tag; host or cells: E. coli
T1 sequence (P43490 whole entry): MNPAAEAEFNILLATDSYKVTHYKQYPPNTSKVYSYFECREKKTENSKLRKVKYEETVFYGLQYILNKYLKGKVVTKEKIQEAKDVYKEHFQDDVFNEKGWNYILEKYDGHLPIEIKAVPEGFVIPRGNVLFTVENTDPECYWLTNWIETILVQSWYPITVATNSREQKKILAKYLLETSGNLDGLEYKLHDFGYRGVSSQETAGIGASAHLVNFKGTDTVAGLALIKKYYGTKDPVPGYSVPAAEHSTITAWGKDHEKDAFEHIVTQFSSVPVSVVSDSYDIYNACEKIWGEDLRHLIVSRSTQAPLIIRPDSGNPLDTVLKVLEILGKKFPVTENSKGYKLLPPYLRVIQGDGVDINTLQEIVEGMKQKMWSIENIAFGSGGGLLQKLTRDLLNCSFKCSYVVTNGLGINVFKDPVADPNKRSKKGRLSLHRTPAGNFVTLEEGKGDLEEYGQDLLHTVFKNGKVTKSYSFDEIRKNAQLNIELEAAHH
The experiment in a line: Biochemical inhibition assay: NAMPT enzymatic reaction, NMN quantified by mass spectrometry. To be noted: read-out: Biochem IC50. The method in brief:
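Inhibition of E. coli-expressed His-tagged human NAMPT, measured as NMN formation by mass spectrometry after a 30 min room-temperature reaction containing 1 μM NAM, 100 μM PRPP and 2.5 mM ATP.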

A word on the IC50: it is the concentration needed to halve the response being measured. On to `O=C(NCc1ccc(S(=O)(=O)c2ccc(C(F)(F)F)cc2F)cc1)c1cc2ccncc2s1`, for which the IC50 was determined as 42.3 nM with A2780 cells (SRB) and 20.2 nM on NAMPT (NAMPT enzymatic assay).
On to `O=C(NCc1ccc(S(=O)(=O)c2ccc(C(F)(F)F)cn2)cc1)c1cnc2nccn2c1` [N-({4-[5-(trifluoromethyl)pyridine-2-sulfonyl]phenyl}methyl)imidazo[1,2-a]pyrimidine-6-carboxamide], for which the IC50 is 70.8 nM with A2780 cells (SRB) and 5.9 nM on NAMPT (NAMPT enzymatic assay).
As for `COc1ccc(S(=O)(=O)c2ccc(CNC(=O)c3cnc4nccn4c3)cc2)c(Cl)c1`, the figures for the IC50 with A2780 cells (SRB) and at NAMPT (NAMPT enzymatic reaction) were 66.9 nM and 6.5 nM, respectively.
Regarding `COc1cc(C(F)(F)F)ccc1S(=O)(=O)c1ccc(CNC(=O)c2cnc3[nH]ncc3c2)cc1`, the half-maximal inhibitory concentration (IC50) with A2780 cells (SRB) turned out to be 28.1 nM; at NAMPT (NAMPT enzymatic assay) it was 120 nM.
Taken in the same sequence, the figures for `C#CCOc1ccc(Cl)cc1S(=O)(=O)c1ccc(CNC(=O)c2ccc3nccn3c2)cc1` were 1.4 nM and 7 nM.
Turning to `Cc1ccc(F)cc1S(=O)(=O)c1ccc(CNC(=O)c2cc3ccncc3o2)cc1`, the concentration for half-maximal inhibition (IC50) with A2780 cells (SRB) was 24.9 nM; at NAMPT (NAMPT enzymatic reaction) it was 14.3 nM.
Regarding `CCN(CC)C(=O)c1cc(Cl)cc(S(=O)(=O)c2ccc(CNC(=O)c3cc4ccncc4s3)cc2)c1`, the results for the IC50 with A2780 cells (SRB) and on NAMPT (NAMPT enzymatic assay) were 0.8 nM and 2.3 nM, respectively.
Regarding `CCOc1ccc(S(=O)(=O)c2ccc(CNC(=O)c3cc4ccncc4o3)cc2)c(C)c1`, the half-inhibitory concentration (IC50) in the test on A2780 cells (SRB) was determined as 27.4 nM; at NAMPT (NAMPT enzymatic reaction), 21.6 nM.
For `O=C(NCc1ccc(S(=O)(=O)c2ccc3ncccc3c2)cc1)c1ccc2nccn2c1` [N-{[4-(quinoline-6-sulfonyl)phenyl]methyl}imidazo[1,2-a]pyridine-6-carboxamide], the IC50 in the test with A2780 cells (SRB) came to 0.83 nM; at NAMPT (NAMPT enzymatic assay), 5.16 nM.
Taken in the same sequence, the figures for `CC(C)NC(=O)c1cc(S(=O)(=O)c2ccc(CNC(=O)c3cnc4[nH]ncc4c3)cc2)ccc1F` [N-{[4-({4-fluoro-3-[(propan-2-yl)carbamoyl]benzene}sulfonyl)phenyl]methyl}-1H-pyrazolo[3,4-b]pyridine-5-carboxamide] were 63.1 nM and 85.2 nM.
For `Cc1cc(F)ccc1S(=O)(=O)c1ccc(CNC(=O)c2cc3cnccc3[nH]2)cc1` [N-({4-[(4-fluoro-2-methylbenzene)sulfonyl]phenyl}methyl)-1H-pyrrolo[3,2-c]pyridine-2-carboxamide], the IC50 was 27 nM with A2780 cells (SRB assay) and 19 nM on NAMPT (NAMPT enzymatic reaction).
For `COc1ccc(F)c(S(=O)(=O)c2ccc(CNC(=O)c3cc4ccncc4o3)cc2)c1`, the values for the IC50 with A2780 cells (SRB) and on NAMPT (NAMPT enzymatic reaction) were 63.7 nM and 26.8 nM, respectively.
Taken in the same sequence, the figures for `CCOc1ccccc1S(=O)(=O)c1ccc(CNC(=O)c2ccc3nccn3c2)cc1` [N-({4-[(2-ethoxybenzene)sulfonyl]phenyl}methyl)imidazo[1,2-a]pyridine-6-carboxamide] were 3.39 nM and 20.3 nM.
Taken in the same sequence, the figures for `Cc1ccc(C)c(S(=O)(=O)c2ccc(CNC(=O)c3cc4ccncc4o3)cc2)c1` were 23.9 nM and 18.1 nM.
Regarding `Cc1ccccc1S(=O)(=O)c1ccc(CNC(=O)c2cnc3[nH]ncc3c2)cc1` [N-({4-[(2-methylbenzene)sulfonyl]phenyl}methyl)-1H-pyrazolo[3,4-b]pyridine-5-carboxamide], the half-maximal inhibitory concentration (IC50) in the test with A2780 cells (SRB) is 100 to 1000 nM; at NAMPT (NAMPT enzymatic reaction) it was 92.6 nM.
In the case of `CC(C)COc1ccc(S(=O)(=O)c2ccc(CNC(=O)c3cnc4nccn4c3)cc2)cc1`, the IC50 stood at 5.2 nM in the test on A2780 cells (SRB) and 5.5 nM on NAMPT (NAMPT enzymatic assay).
In the case of `O=C(NCc1ccc(S(=O)(=O)c2ccccc2)cc1)c1ccc2scnc2c1` [N-(4-(phenylsulfonyl)benzyl)benzo[d]thiazole-5-carboxamide], the values for the IC50 in the test on A2780 cells (SRB assay) and on NAMPT (NAMPT enzymatic reaction) were 3870 nM and 47 nM, respectively.
On to `O=C(NCc1ccc(S(=O)(=O)c2cnn(-c3ccc(F)cc3)c2)cc1)c1cc2ccncc2s1` [N-({4-[1-(4-fluorophenyl)-1H-pyrazole-4-sulfonyl]phenyl}methyl)thieno[2,3-c]pyridine-2-carboxamide], for which the results for the IC50 in the test on A2780 cells (SRB) and on NAMPT (NAMPT enzymatic assay) were 6.2 nM and 4.5 nM, respectively.

The values are drawn from patent US12336981B2, “Compounds and compositions for the inhibition of NAMPT” (Valo Health, Inc., priority 2010, dated 2025).
